Values after ≈ are worked out from the molar mass of the structure shown. Active and inactive are the calls of the source. The rule behind the calls is not given here.
Assays:
Type in all cases: functional
Salmonella enteritidis = assay: Antibacterial activity against Salmonella enterica subsp. enterica serovar Enteritidis ATCC 1376 after overnight incubation by microdilution method
Bacillus subtilis = assay: Antibacterial activity against Bacillus subtilis ATCC 6633 after overnight incubation by microdilution method
Proteus vulgaris = assay: Antibacterial activity against Proteus vulgaris Kukem 1329 after overnight incubation by microdilution method
Klebsiella pneumoniae = assay: Antibacterial activity against Klebsiella pneumoniae A137 after overnight incubation by microdilution method
Pseudomonas aeruginosa = assay: Antibacterial activity against Pseudomonas aeruginosa ATCC 9027 after overnight incubation by microdilution method
Escherichia coli = assay: Antibacterial activity against Escherichia coli B3704 after overnight incubation by microdilution method
Enterococcus faecalis = assay: Antibacterial activity against Enterococcus faecalis ATCC 29122 after overnight incubation by microdilution method
Streptococcus pyogenes = assay: Antibacterial activity against Streptococcus pyogenes ATCC 176 after overnight incubation by microdilution method
Staphylococcus aureus = assay: Antibacterial activity against Staphylococcus aureus ATCC 29213 after overnight incubation by microdilution method
Xanthomonas campestris = assay: Antibacterial activity against Xanthomonas campestris A235 after overnight incubation by microdilution method

MIC (Salmonella enteritidis)	MIC (Bacillus subtilis)	MIC (Proteus vulgaris)	MIC (Klebsiella pneumoniae)	MIC (Pseudomonas aeruginosa)	MIC (Escherichia coli)	MIC (Enterococcus faecalis)	MIC (Streptococcus pyogenes)	MIC (Staphylococcus aureus)	MIC (Xanthomonas campestris)	SMILES
inactive	inactive	512 µg/mL (≈ 1410 µM)	inactive	32 µg/mL (≈ 88.1 µM)	512 µg/mL (≈ 1410 µM)	inactive	inactive	inactive	512 µg/mL (≈ 1410 µM)	Nc1nnc(-c2ccccc2)c2c(-c3ccccc3)n(-c3ccccc3)nc12
24 µg/mL (≈ 74.3 µM)	24 µg/mL (≈ 74.3 µM)	24 µg/mL (≈ 74.3 µM)	12 µg/mL (≈ 37.1 µM)	24 µg/mL (≈ 74.3 µM)	6 µg/mL (≈ 18.6 µM)	12 µg/mL (≈ 37.1 µM)	12 µg/mL (≈ 37.1 µM)	6 µg/mL (≈ 18.6 µM)	12 µg/mL (≈ 37.1 µM)	O=C(N[C@H](CO)[C@H](O)c1ccc([N+](=O)[O-])cc1)C(Cl)Cl [CHLORAMPHENICOL]
inactive	inactive	512 µg/mL (≈ 1400 µM)	inactive	inactive	512 µg/mL (≈ 1400 µM)	inactive	512 µg/mL (≈ 1400 µM)	inactive	256 µg/mL (≈ 701 µM)	O=c1onc(-c2ccccc2)c2c(-c3ccccc3)n(-c3ccccc3)nc12
inactive	inactive	512 µg/mL (≈ 1190 µM)	inactive	inactive	inactive	inactive	inactive	inactive	512 µg/mL (≈ 1190 µM)	O=C(c1ccccc1)c1nn(-c2ccccc2)c(-c2ccccc2)c1C(=O)c1ccccc1
inactive	inactive	512 µg/mL (≈ 1470 µM)	inactive	inactive	512 µg/mL (≈ 1470 µM)	inactive	inactive	inactive	512 µg/mL (≈ 1470 µM)	N#Cc1nn(-c2ccccc2)c(-c2ccccc2)c1C(=O)c1ccccc1
32 µg/mL (≈ 71.7 µM)	inactive	32 µg/mL (≈ 71.7 µM)	32 µg/mL (≈ 71.7 µM)	32 µg/mL (≈ 71.7 µM)	32 µg/mL (≈ 71.7 µM)	inactive	32 µg/mL (≈ 71.7 µM)	32 µg/mL (≈ 71.7 µM)	32 µg/mL (≈ 71.7 µM)	NS(=O)(=O)NC(=O)c1nn(-c2ccccc2)c(-c2ccccc2)c1C(=O)c1ccccc1

— ChEMBL document CHEMBL3045044, “Further derivatives of 4-benzoyl-1,5-diphenyl-1H-pyrazole-3-carboxylic acid and their antibacterial activities” (2007)
